Data reported in patent US9376436B2, “2-(pyridin-2yl)-1, 7-diaza-spiro [4.4] nonane-6-one compound as voltage-gated sodium channels modulators” (CONVERGENCE PHARMACEUTICALS LIMITED, priority 2011, dated 2016).
Structures can show the parent of a compound that is named as a salt. Where two headings read alike, the source gives them in different places.

Target: T1, hNaV1.7 (Homo sapiens, UniProt Q15858)
T1 construct: expressed in transfected cells; host or cells: HEK293
Experiment: QPatch NaV1.7 assay (whole-cell patch clamp, QPatch16x)
Assay type: cell-based
Conditions: HEK293-hNaV1.7 cells
How it was run: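 Automated whole-cell recordings in hNaV1.7-expressing HEK293 cells, holding at either −90 mV (mostly closed channels) or the half-inactivation voltage. Compounds applied cumulatively at four concentrations for 120 s each; peak current on 20 ms depolarisation to 0 mV fitted by Hill equation to yield pIC50.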

[1] = holding voltage V1/2 SSI (half of channels inactivated), read-out: QP Nav1.7 SSI vhalf pIC50 (converted)
[2] = holding voltage −90 mV (most channels closed), read-out: QP Nav1.7 −90 mV pIC50 (converted)

T1 sequence (Q15858 whole entry): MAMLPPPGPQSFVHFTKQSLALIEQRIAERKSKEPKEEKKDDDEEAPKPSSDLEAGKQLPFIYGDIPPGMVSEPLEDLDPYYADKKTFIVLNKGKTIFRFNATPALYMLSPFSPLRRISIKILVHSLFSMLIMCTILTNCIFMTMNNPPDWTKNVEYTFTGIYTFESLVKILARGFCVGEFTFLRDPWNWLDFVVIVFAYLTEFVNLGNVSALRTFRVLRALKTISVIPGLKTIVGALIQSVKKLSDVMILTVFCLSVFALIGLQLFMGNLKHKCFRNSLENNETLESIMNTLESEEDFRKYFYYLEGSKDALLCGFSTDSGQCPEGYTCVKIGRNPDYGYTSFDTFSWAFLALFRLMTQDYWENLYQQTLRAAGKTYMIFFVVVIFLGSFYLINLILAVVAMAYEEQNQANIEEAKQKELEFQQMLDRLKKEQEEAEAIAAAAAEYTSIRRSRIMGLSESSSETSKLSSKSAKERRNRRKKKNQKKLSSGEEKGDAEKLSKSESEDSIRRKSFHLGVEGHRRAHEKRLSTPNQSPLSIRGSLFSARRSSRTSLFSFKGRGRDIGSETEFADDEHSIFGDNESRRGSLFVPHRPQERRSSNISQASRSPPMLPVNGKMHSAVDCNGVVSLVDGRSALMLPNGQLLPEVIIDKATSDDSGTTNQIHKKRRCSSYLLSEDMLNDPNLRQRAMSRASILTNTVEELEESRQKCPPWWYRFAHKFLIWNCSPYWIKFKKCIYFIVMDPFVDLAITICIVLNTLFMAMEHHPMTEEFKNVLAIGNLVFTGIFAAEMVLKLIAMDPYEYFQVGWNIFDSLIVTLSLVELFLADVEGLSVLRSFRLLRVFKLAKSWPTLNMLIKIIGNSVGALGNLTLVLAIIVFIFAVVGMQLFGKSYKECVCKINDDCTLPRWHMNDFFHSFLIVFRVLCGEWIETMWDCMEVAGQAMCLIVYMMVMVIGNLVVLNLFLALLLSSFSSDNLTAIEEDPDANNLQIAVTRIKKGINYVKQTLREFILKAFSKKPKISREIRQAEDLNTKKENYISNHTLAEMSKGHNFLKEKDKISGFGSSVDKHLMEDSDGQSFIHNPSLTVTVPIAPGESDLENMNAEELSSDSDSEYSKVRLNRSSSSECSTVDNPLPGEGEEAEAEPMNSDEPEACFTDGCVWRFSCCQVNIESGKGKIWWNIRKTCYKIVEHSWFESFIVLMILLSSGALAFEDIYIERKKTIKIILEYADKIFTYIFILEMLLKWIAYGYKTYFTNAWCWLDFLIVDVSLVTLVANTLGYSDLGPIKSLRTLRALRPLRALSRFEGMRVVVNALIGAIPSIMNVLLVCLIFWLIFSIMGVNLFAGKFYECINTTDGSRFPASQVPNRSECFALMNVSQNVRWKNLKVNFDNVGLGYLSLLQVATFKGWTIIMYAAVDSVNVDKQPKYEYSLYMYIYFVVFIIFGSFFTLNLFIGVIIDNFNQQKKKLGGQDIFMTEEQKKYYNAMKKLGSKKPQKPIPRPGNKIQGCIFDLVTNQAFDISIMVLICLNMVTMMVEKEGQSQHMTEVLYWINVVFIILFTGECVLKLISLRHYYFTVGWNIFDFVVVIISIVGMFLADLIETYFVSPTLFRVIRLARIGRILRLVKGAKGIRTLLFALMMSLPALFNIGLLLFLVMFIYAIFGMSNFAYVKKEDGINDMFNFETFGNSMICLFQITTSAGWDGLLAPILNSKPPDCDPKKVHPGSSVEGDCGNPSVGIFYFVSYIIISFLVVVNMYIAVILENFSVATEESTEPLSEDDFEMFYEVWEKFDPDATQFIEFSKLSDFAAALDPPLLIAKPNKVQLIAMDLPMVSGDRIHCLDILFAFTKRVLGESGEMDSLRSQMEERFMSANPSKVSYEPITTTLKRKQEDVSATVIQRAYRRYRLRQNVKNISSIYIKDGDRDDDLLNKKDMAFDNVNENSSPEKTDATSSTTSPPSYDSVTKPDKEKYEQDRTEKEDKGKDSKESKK

SMILES | IC50 [1] [µM] | IC50 [2] [µM]
CCOc1ccc(-c2cc(C)nc([C@@H]3CC[C@@]4(CCN(C)C4=O)N3)c2)cc1 [Example 88, (2S,5S)-2-[4-(4-Ethoxyphenyl)-6-methyl-2-pyridyl]-7-methyl-1,7-diazaspiro[4.4]nonan-6-one hydrochloride] | 31.6 | 316
CCOc1ccc(-c2cc(C)nc([C@H]3CC[C@@]4(CCN(C)C4=O)N3)c2)cc1 [Example 89, (3R,5S)-3-[4-(4-Ethoxyphenyl)-6-methyl-2-pyridyl]-8-methyl-4,8-diazaspiro[4.4]nonan-9-one hydrochloride] | 3.16 | 50.1
COc1cc(C(F)(F)F)ccc1-c1cc(C)nc([C@H]2CC[C@]3(CCN(C)C3=O)N2)c1 [Example 90, (3R,5R)-3-[4-[2-Methoxy-4-(trifluoromethyl)phenyl]-6-methyl-2-pyridyl]-8-methyl-4,8-diazaspiro[4.4]nonan-9-one hydrochloride] | 0.316 | 6.31
COc1cc(C(F)(F)F)ccc1-c1cc(C)nc([C@@H]2CC[C@]3(CCN(C)C3=O)N2)c1 [Example 91, (3S,5R)-3-[4-[2-Methoxy-4-(trifluoromethyl)phenyl]-6-methyl-2-pyridyl]-8-methyl-4,8-diazaspiro[4.4]nonan-9-one hydrochloride] | 2 | 39.8
CCOc1ccc(F)c(-c2cc(C)nc([C@@H]3CC[C@@]4(CCN(C)C4=O)N3)c2)c1 [Example 92, (2S,5S)-2-[4-(5-Ethoxy-2-fluoro-phenyl)-6-methyl-pyridin-2-yl]-7-methyl-1,7-diaza-spiro[4.4]nonan-6-one hydrochloride] | 2.51 | 39.8
CCOc1ccc(F)c(-c2cc(C)nc([C@H]3CC[C@@]4(CCN(C)C4=O)N3)c2)c1 [Example 93, (2R,5S)-2-[4-(5-Ethoxy-2-fluoro-phenyl)-6-methyl-pyridin-2-yl]-7-methyl-1,7-diaza-spiro[4.4]nonan-6-one hydrochloride] | 3.98 | 39.8
Cc1cc(-c2ccc(C(F)(F)F)cc2)cc([C@H]2CC[C@@]3(CCNC3=O)N2)n1 [Example 94, (2R,5S)-2-[6-Methyl-4-[4-(trifluoromethyl)phenyl]-2-pyridyl]-1,7-diazaspiro[4.4]nonan-6-one hydrochloride] | 0.2 | 3.98
Cc1cc(-c2ccc(C(F)(F)F)cc2)cc([C@@H]2CC[C@]3(CCNC3=O)N2)n1 [Example 95, (2S,5R)-2-[6-Methyl-4-[4-(trifluoromethyl)phenyl]-2-pyridyl]-1,7-diazaspiro[4.4]nonan-6-one hydrochloride] | 12.6 | 100
Cc1cc(-c2ccc(C(F)(F)F)cc2)cc([C@H]2CC[C@]3(CCNC3=O)N2)n1 [Example 96, (2R,5R)-2-[6-Methyl-4-[4-(trifluoromethyl)phenyl]-2-pyridyl]-1,7-diazaspiro[4.4]nonan-6-one hydrochloride] | 3.16 | 20
Cc1cc(-c2ccc(C(F)(F)F)cc2)cc([C@@H]2CC[C@@]3(CCNC3=O)N2)n1 [Example 97, (2S,5S)-2-[6-Methyl-4-[4-(trifluoromethyl)phenyl]-2-pyridyl]-1,7-diazaspiro[4.4]nonan-6-one hydrochloride] | 1.26 | 20
Cc1cc(-c2ccc(C(F)(F)F)cc2)cc([C@@H]2CC[C@]3(CCCNC3=O)N2)n1 [Example 98, (2S,5S)-2-[6-Methyl-4-(4-trifluoromethyl-phenyl)-pyridin-2-yl]-1,7-diaza-spiro[4.5]decan-6-one hydrochloride] | 0.631 | 25.1
O=C1NCCC[C@@]12CC[C@@H](c1cc(-c3ccc(F)cc3)ccn1)N2 [Example 110, (2S,5R)-2-[4-(4-Fluoro-phenyl)-pyridin-2-yl]-1,7-diaza-spiro[4.5]decan-6-one hydrochloride] | 10 | 251
O=C1NCCC[C@@]12CC[C@H](c1cc(-c3ccc(F)cc3)ccn1)N2 [Example 111, (2R,5R)-2-[4-(4-Fluoro-phenyl)-pyridin-2-yl]-1,7-diaza-spiro[4.5]decan-6-one hydrochloride] | 63.1 | 200
O=C1NCCC[C@]12CC[C@H](c1cc(-c3ccc(F)cc3)ccn1)N2 [Example 112, (2R,5S)-2-[4-(4-Fluoro-phenyl)-pyridin-2-yl]-1,7-diaza-spiro[4.5]decan-6-one hydrochloride] | 3.98 | 39.8
O=C1NCCC[C@]12CC[C@@H](c1cc(-c3ccc(F)cc3)ccn1)N2 [Example 113, (2S,5S)-2-[4-(4-Fluoro-phenyl)-pyridin-2-yl]-1,7-diaza-spiro[4.5]decan-6-one hydrochloride] | 50.1 | 200

Results, then the compound that gave them:

IC50 [1] [µM] | IC50 [2] [µM] | SMILES
1 | 15.8 | Cc1cc(-c2ccc(C(F)(F)F)cc2)cc([C@H]2CC[C@@]3(CCCNC3=O)N2)n1 [Example 99, (2R,5R)-2-[6-Methyl-4-(4-trifluoromethyl-phenyl)-pyridin-2-yl]-1,7-diaza-spiro[4.5]decan-6-one hydrochloride]
0.2 | 1 | Cc1cc(-c2ccc(C(F)(F)F)cc2)cc([C@H]2CC[C@]3(CCCNC3=O)N2)n1 [Example 100, (2R,5S)-2-[6-Methyl-4-(4-trifluoromethyl-phenyl)-pyridin-2-yl]-1,7-diaza-spiro[4.5]decan-6-one hydrochloride]
10 | 12.6 | Cc1cc(-c2ccc(C(F)(F)F)cc2)cc([C@@H]2CC[C@@]3(CCCNC3=O)N2)n1 [Example 101, (2S,5R)-2-[6-Methyl-4-(4-trifluoromethyl-phenyl)-pyridin-2-yl]-1,7-diaza-spiro[4.5]decan-6-one hydrochloride]
2 | 25.1 | CCOc1ccc(F)c(-c2cc(C)nc([C@@H]3CC[C@]4(CCNC4=O)N3)c2)c1 [Example 102, (2S,5R)-2-[4-(5-Ethoxy-2-fluoro-phenyl)-6-methyl-2-pyridyl]-1,7-diazaspiro[4.4]nonan-6-one hydrochloride]
0.126 | 2.51 | CCOc1ccc(F)c(-c2cc(C)nc([C@H]3CC[C@]4(CCNC4=O)N3)c2)c1 [Example 103, (2R,5R)-2-[4-(5-Ethoxy-2-fluoro-phenyl)-6-methyl-2-pyridyl]-1,7-diazaspiro[4.4]nonan-6-one hydrochloride]
0.158 | 1.58 | CCOc1ccc(F)c(-c2cc(C)nc([C@H]3CC[C@@]4(CCNC4=O)N3)c2)c1 [Example 104, (2R,5S)-2-[4-(5-Ethoxy-2-fluoro-phenyl)-6-methyl-2-pyridyl]-1,7-diazaspiro[4.4]nonan-6-one hydrochloride]
2 | 25.1 | CCOc1ccc(F)c(-c2cc(C)nc([C@@H]3CC[C@@]4(CCNC4=O)N3)c2)c1 [Example 105, (2S,5S)-2-[4-(5-Ethoxy-2-fluoro-phenyl)-6-methyl-2-pyridyl]-1,7-diazaspiro[4.4]nonan-6-one hydrochloride]
2 | 5.01 | CCOc1ccc(F)c(-c2ccnc([C@@H]3CC[C@]4(CCCNC4=O)N3)c2)c1 [Example 106, (2S,5S)-2-[4-(5-Ethoxy-2-fluoro-phenyl)-pyridin-2-yl]-1,7-diaza-spiro[4.5]decan-6-one hydrochloride]
0.2 | 1.58 | CCOc1ccc(F)c(-c2ccnc([C@H]3CC[C@]4(CCCNC4=O)N3)c2)c1 [Example 107, (2R,5S)-2-[4-(5-Ethoxy-2-fluoro-phenyl)-pyridin-2-yl]-1,7-diaza-spiro[4.5]decan-6-one hydrochloride]
0.0631 | 1.26 | CCOc1ccc(F)c(-c2ccnc([C@H]3CC[C@@]4(CCCNC4=O)N3)c2)c1 [Example 108, (2R,5R)-2-[4-(5-Ethoxy-2-fluoro-phenyl)-pyridin-2-yl]-1,7-diaza-spiro[4.5]decan-6-one hydrochloride]
1 | 2 | CCOc1ccc(F)c(-c2ccnc([C@@H]3CC[C@@]4(CCCNC4=O)N3)c2)c1 [Example 109, (2S,5R)-2-[4-(5-Ethoxy-2-fluoro-phenyl)-pyridin-2-yl]-1,7-diaza-spiro[4.5]decan-6-one hydrochloride]
15.8 | 79.4 | O=C1NCC[C@]12CC[C@@H](c1cc(-c3ccc(C(F)(F)F)cc3)ccn1)N2 [Example 114, (2S,5R)-2-[4-[4-(Trifluoromethyl)phenyl]-2-pyridyl]-1,7-diazaspiro[4.4]nonan-6-one hydrochloride]
2.51 | 31.6 | O=C1NCC[C@]12CC[C@H](c1cc(-c3ccc(C(F)(F)F)cc3)ccn1)N2 [Example 115, (2R,5R)-2-[4-[4-(Trifluoromethyl)phenyl]-2-pyridyl]-1,7-diazaspiro[4.4]nonan-6-one hydrochloride]
10 | 79.4 | O=C1NCC[C@]12CC[C@@H](c1cc(-c3cccc(OC(F)(F)F)c3)ccn1)N2 [Example 116, (2S,5R)-2-[4-[3-(Trifluoromethoxy)phenyl]-2-pyridyl]-1,7-diazaspiro[4.4]nonan-6-one hydrochloride]
0.398 | 7.94 | O=C1NCC[C@]12CC[C@H](c1cc(-c3cccc(OC(F)(F)F)c3)ccn1)N2 [Example 117, (2R,5R)-2-[4-[3-(Trifluoromethoxy)phenyl]-2-pyridyl]-1,7-diazaspiro[4.4]nonan-6-one hydrochloride]
7.94 | 50.1 | O=C1NCC[C@@]12CC[C@H](c1cc(-c3cccc(OC(F)(F)F)c3)ccn1)N2 [Example 118, (2R,5S)-2-[4-[3-(Trifluoromethoxy)phenyl]-2-pyridyl]-1,7-diazaspiro[4.4]nonan-6-one hydrochloride]
